In patent US9181233B2, “Inhibitors of glutaminyl cyclase” (PROBIODRUG AG, priority 2010, dated 2015):

Target: hQC (Homo sapiens (Human), UniProt Q16769)
Test: QC inhibitor assay (hQC inhibition, IC50 and Ki determination)
Format: biochemical
Conditions: for Ki: competitive inhibition fit
Protocol: All measurements were performed with a BioAssay Reader HTS-7000Plus for microplates (Perkin Elmer) at 30° C. QC activity was evaluated fluorometrically using H-Gln-βNA. The samples consisted of 0.2 mM fluorogenic substrate, 0.25 U pyroglutamyl aminopeptidase (Unizyme, Hørsholm, Denmark) in 0.2 M Tris/HCl, pH 8.0 containing 20 mM EDTA and an appropriately diluted aliquot of QC in a final volume of 250 μl. Excitation/emission wavelengths were 320/410 nm. The assay reactions were initiated by addition of glutaminyl cyclase. QC activity was determined from a standard curve of β-naphthylamine under assay conditions. One unit is defined as the amount of QC catalyzing the formation of 1 μmol pGlu-βNA from H-Gln-βNA per minute under the described conditions.
In a second fluorometric assay, QC was activity determined using H-Gln-AMC as substrate. Reactions were carried out at 30° C. utilizing the NOVOStar reader for microplates (BMG labtechnologies). The samples consisted of varying concentrations of the fluorogenic substrate, 0.1 U pyroglutamyl aminopeptidase (Qiagen) in 0.05 M Tris/HCl, pH 8.0 containing 5 mM EDTA and an appropriately diluted aliquot of QC in a final volume of 250 μl. Excitation/emission wavelengths were 380/460 nm. The assay reactions were initiated by addition of glutaminyl cyclase. QC activity was determined from a standard curve of 7-amino-4-methylcoumarin under assay conditions. The kinetic data were evaluated using GraFit software.
This novel assay was used to determine the kinetic parameters for most of the QC substrates. […] Samples consisted of the respective QC substrate, 0.3 mM NADH, 14 mM α-Ketoglutaric acid and 30 U/ml glutamate dehydrogenase in a final volume of 250 μl. Reactions were started by addition of QC and perused by monitoring of the decrease in absorbance at 340 nm for 8-15 min.
The initial velocities were evaluated and the enzymatic activity was determined from a standard curve of ammonia under assay conditions. All samples were measured at 30° C., using either the […]luor Plus or the Sunrise (both from TECAN) reader for microplates. Kinetic data was evaluated using GraFit software.
For inhibitor testing, the sample composition was the same as described above, except of the putative inhibitory compound added. For a rapid test of QC-inhibition, samples contained 4 mM of the respective inhibitor and a substrate concentration at 1 KM. For detailed investigations of the inhibition and determination of Ki-values, influence of the inhibitor on the auxiliary enzymes was investigated first. […] The inhibitory constant was evaluated by fitting the set of progress curves to the general equation for competitive inhibition using GraFit software.

hQC, sequence (Q16769 29-361): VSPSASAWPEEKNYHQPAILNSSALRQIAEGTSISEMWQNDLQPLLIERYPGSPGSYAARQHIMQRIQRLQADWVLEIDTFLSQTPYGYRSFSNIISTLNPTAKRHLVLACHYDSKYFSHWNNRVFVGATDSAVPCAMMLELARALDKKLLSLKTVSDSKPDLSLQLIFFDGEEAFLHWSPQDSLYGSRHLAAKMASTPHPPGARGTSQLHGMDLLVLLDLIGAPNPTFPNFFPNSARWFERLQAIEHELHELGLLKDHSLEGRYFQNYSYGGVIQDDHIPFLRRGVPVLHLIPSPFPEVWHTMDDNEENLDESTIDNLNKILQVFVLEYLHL

Row | IC50 | Ki | Compound
1 | 720 nM | 140 nM | Fc1ccc(CCc2nnc(-c3ccc4[nH]cnc4c3)s2)cc1F [Example 58, 5-(5-(3,4-Difluorophenethyl)-1,3,4-thiadiazol-2-yl)-1H-benzo[d]imidazole]
2 | 560 nM | 120 nM | Fc1cccc(CCc2nnc(-c3ccc4[nH]cnc4c3)s2)c1 [Example 59, 5-(5-(3-fluorophenethyl)-1,3,4-thiadiazol-2-yl)-1H-benzo[d]imidazole]
3 | 450 nM | 40 nM | COc1cccc(CCc2nnc(-c3ccc4[nH]cnc4c3)s2)c1 [Example 60, 5-(5-(3-Methoxyphenethyl)-1,3,4-thiadiazol-2-yl)-1H-benzo[d]imidazole]
4 | 760 nM | 170 nM | COc1ccccc1CCc1nnc(-c2ccc3[nH]cnc3c2)s1 [Example 61, 5-(5-(2-Methoxyphenethyl)-1,3,4-thiadiazol-2-yl)-1H-benzo[d]imidazole]
5 | 480 nM | 80 nM | COc1ccc(OC)c(CCc2nnc(-c3ccc4[nH]cnc4c3)s2)c1 [Example 62, 5-(5-(2,5-Dimethoxyphenethyl)-1,3,4-thiadiazol-2-yl)-1H-benzo[d]imidazole]
6 | 220 nM | 100 nM | COc1cccc(CCc2nnc(-c3ccc4[nH]cnc4c3)s2)c1Cl [Example 63, 5-(5-(2-Chloro-3-methoxyphenethyl)-1,3,4-thiadiazol-2-yl)-1H-benzo[d]imidazole]
7 | 530 nM | 120 nM | c1ccc(SCc2nnc(-c3ccc4[nH]cnc4c3)s2)cc1 [Example 65, 5-(5-((Phenylthio)methyl)-1,3,4-thiadiazol-2-yl)-1H-benzo[d]imidazole]
8 | 570 nM | 120 nM | c1ccc(SCn2cc(-c3ccc4[nH]cnc4c3)nn2)cc1 [Example 84, 5-(1-((Phenylthio)methyl)-1H-1,2,3-triazol-4-yl)-1H-benzo[d]imidazole]

More lines, now with the values behind:

Row | Compound | IC50 | Ki
9 | COc1ccc(Cn2cnnc2-c2ccc3[nH]cnc3c2)cc1 [Example 8, 5-(4-(4-Methoxybenzyl)-4H-1,2,4-triazol-3-yl)-1H-benzo[d]imidazole] | 640 nM | 110 nM
10 | Clc1ccccc1Cn1cnnc1-c1ccc2[nH]cnc2c1 [Example 9, 5-(4-(2-Chlorobenzyl)-4H-1,2,4-triazol-3-yl)-1H-benzo[d]imidazole] | 760 nM | 200 nM
11 | c1ccc(Oc2ccc(Cn3cnnc3-c3ccc4[nH]cnc4c3)cc2)cc1 [Example 10, 5-(4-(4-phenoxybenzyl)-4H-1,2,4-triazol-3-yl)-1H-benzo[d]imidazole] | 480 nM | 80 nM
12 | Clc1cccc(Cn2cnnc2-c2ccc3[nH]cnc3c2)c1Cl [Example 22, 5-(4-(2,3-Dichlorobenzyl)-4H-1,2,4-triazol-3-yl)-1H-benzo[d]imidazole] | 520 nM | 120 nM
13 | COc1ccc(Cn2cnnc2-c2ccc3[nH]cnc3c2)cc1Cl [Example 24, 5-(4-(3-Chloro-4-methoxybenzyl)-4H-1,2,4-triazol-3-yl)-1H-benzo[d]imidazole] | 850 nM | 230 nM
14 | COc1ccc(CCc2nnc(-c3ccc4[nH]cnc4c3)o2)cc1Cl [Example 39, 5-(5-(3-Chloro-4-methoxyphenethyl)-1,3,4-oxadiazol-2-yl)-1H-benzo[d]imidazole] | 800 nM | 130 nM
15 | CSc1ccc(CCc2nnc(-c3ccc4[nH]cnc4c3)s2)cc1 [Example 50, 5-(5-(4-(Methylthio)phenethyl)-1,3,4-thiadiazol-2-yl)-1H-benzo[d]imidazole] | 760 nM | 80 nM
16 | COc1ccc(CCc2nnc(-c3ccc4[nH]cnc4c3)s2)cc1Cl [Example 52, 5-(5-(3-Chloro-4-methoxyphenethyl)-1,3,4-thiadiazol-2-yl)-1H-benzo[d]imidazole] | 680 nM | 50 nM
17 | COc1cc(CCc2nnc(-c3ccc4[nH]cnc4c3)s2)cc(OC)c1OC [Example 55, 5-(5-(3,4,5-Trimethoxyphenethyl)-1,3,4-thiadiazol-2-yl)-1H-benzo[d]imidazole] | 490 nM | 80 nM
